Measurements as given in patent US4474766A, “Anti-inflammatory/analgesic combination of cyclo-(N-methyl-Ala-Tyr-D-Trp-Lys-Val-Phe) and a selected non-steroidal anti-inflammatory drug (NSAID)” (Merck & Co., Inc., priority 1983, dated 1984).

Tested on: NSAID-induced gastric ulcers
Assay: NSAID-Induced Ulcers in the Sprague-Dawley Rat (gastric ulcer assay)
Assay type: in vivo
Set-up: Inhibition of Gastric Ulcers: unit not given here
From the text: When a selected NSAID, for example, indomethacin, is combined with cyclo-(N-methyl-Ala-Tyr-D-Trp-Lys-Val-Phe) according to the present invention, the following results are obtained from the well-established gastric ulcer assay in the Sprague-Dawley male rat is described below:
Protocol: NSAID-Induced Ulcers in the Sprague-Dawley Rat
Twenty-four (24) hour fasted, male, Sprague-Dawley rats, 130 to 150 gms. each, are randomized into groups for assay. The animals are housed to wire-bottom cages without bedding and allowed free-access to water throughout the fasting and experimental periods. Ulcers are then induced by the peroral administration of NSAID at dose levels predetermined to provoke a similar number of ulcers within 4 hours of additional fasting*. Each NSAID is prepared in 0.5% methyl cellulose vehicle and given at a volume of 10 ml/kg rounded to the nearest 0.1 ml. Either 0.5% methylcellulose vehicle or compound A is co-administered perorally with the NSAID bringing the total volume to 20 ml/kg rounded to the nearest 0.2 ml.
*For example: Indomethacin-20 mg/kg; Naproxen-50 mg/kg; Ibuprofen-100 mg/kg; Diclofenac-75 mg/kg.
Four (4) hours after the administration of NSAID+vehicle, or NSAID+compound A, the animals are sacrificed by CO2 inhalation, the stomachs removed, excised along the inner curvature, washed carefully with cool tap water and placed in 0.9% saline. When all groups have been processed, the mucosal region of the stomachs are examined under a magnifying lens and scored according to the total number of lesions present. Group scores represent the mean score of animals in that group. P values are determined by Student's "t" test, comparing the ulcer scores of individual rats given NSAID+compound A to those dosed with NSAID+vehicle only.

[1] = Compound A 0.01 mg/kg p.o. co-administered with Diclofenac 75 mg/kg p.o., 4 h
[2] = Compound A 0.01 mg/kg p.o. co-administered with Ibuprofen 100 mg/kg p.o., 4 h
[3] = Compound A 0.01 mg/kg p.o. co-administered with Indomethacin 20 mg/kg p.o., 4 h
[4] = Compound A 0.01 mg/kg p.o. co-administered with Naproxen 50 mg/kg p.o., 4 h
[5] = Compound A 0.1 mg/kg p.o. co-administered with Diclofenac 75 mg/kg p.o., 4 h
[6] = Compound A 0.1 mg/kg p.o. co-administered with Ibuprofen 100 mg/kg p.o., 4 h
[7] = Compound A 0.1 mg/kg p.o. co-administered with Indomethacin 20 mg/kg p.o., 4 h
[8] = Compound A 0.1 mg/kg p.o. co-administered with Naproxen 50 mg/kg p.o., 4 h
[9] = Compound A 1.0 mg/kg p.o. co-administered with Diclofenac 75 mg/kg p.o., 4 h
[10] = Compound A 1.0 mg/kg p.o. co-administered with Ibuprofen 100 mg/kg p.o., 4 h
[11] = Compound A 1.0 mg/kg p.o. co-administered with Indomethacin 20 mg/kg p.o., 4 h
[12] = Compound A 1.0 mg/kg p.o. co-administered with Naproxen 50 mg/kg p.o., 4 h

`O=C(O)Cc1ccccc1Nc1c(Cl)cccc1Cl` [Diclofenac, diclofenac, reference compound] was tested. Which “Inhibition of Gastric Ulcers” value (Diclofenac 75 mg/kg p.o. + vehicle (control), 4 h) did it give?
Its value is 0.

And the “No. of Gastric Ulcers M ± S.E.M.” value (Diclofenac 75 mg/kg p.o. + vehicle (control), fasted male rats, 4 h after dosing)?
The value was 14.0 ± 1.6.

With `COc1ccc2c(c1)c(CC(=O)O)c(C)n2C(=O)c1ccc(Cl)cc1` [Indomethacin, indomethacin, reference compound] as the compound, how does the “Inhibition of Gastric Ulcers” value (Indomethacin 20 mg/kg p.o. + vehicle (control), 4 h) read?
The value was 0.

What about the “No. of Gastric Ulcers M ± S.E.M.” value (Indomethacin 20 mg/kg p.o. + vehicle (control), fasted male rats, 4 h after dosing) of the same compound?
The value was 18.1 ± 1.6.

For “cyclo-(N-methyl-Ala-Tyr-D-Trp-Lys-Val-Phe) [Compound A]”, which “Inhibition of Gastric Ulcers” value [1] is on record?
The value was 0.

What about the “No. of Gastric Ulcers M ± S.E.M.” value [1] of the same compound?
Its value is 18.7 ± 2.0.

What about the “Inhibition of Gastric Ulcers” value [2] of the same compound?
The value was 36.4.

What about the “No. of Gastric Ulcers M ± S.E.M.” value [2] of the same compound?
The value was 8.2 ± 1.0.

What about the “Inhibition of Gastric Ulcers” value [3] of the same compound?
Its value is 0.

What about the “No. of Gastric Ulcers M ± S.E.M.” value [3] of the same compound?
Its value is 18.6 ± 4.4.

And the “Inhibition of Gastric Ulcers” value [4]?
The value was 0.

What about the “No. of Gastric Ulcers M ± S.E.M.” value [4] of the same compound?
The value was 14.0 ± 3.0.

And the “Inhibition of Gastric Ulcers” value [5]?
The value was 47.9.

And the “No. of Gastric Ulcers M ± S.E.M.” value [5]?
Its value is 7.3 ± 2.3.

What about the “Inhibition of Gastric Ulcers” value [6] of the same compound?
Its value is 87.6.

And the “No. of Gastric Ulcers M ± S.E.M.” value [6]?
Its value is 1.6 ± 0.6.

And the “Inhibition of Gastric Ulcers” value [7]?
The value was 50.3.

And the “No. of Gastric Ulcers M ± S.E.M.” value [7]?
Its value is 9.0 ± 1.9.

And the “Inhibition of Gastric Ulcers” value [8]?
Its value is 67.7.

And the “No. of Gastric Ulcers M ± S.E.M.” value [8]?
Its value is 5.0 ± 2.5.

What about the “Inhibition of Gastric Ulcers” value [9] of the same compound?
Its value is 99.3.

What about the “No. of Gastric Ulcers M ± S.E.M.” value [9] of the same compound?
Its value is 0.1 ± 0.1.

And the “Inhibition of Gastric Ulcers” value [10]?
Its value is 92.3.

And the “No. of Gastric Ulcers M ± S.E.M.” value [10]?
Its value is 1.0 ± 0.5.

And the “Inhibition of Gastric Ulcers” value [11]?
The value was 83.4.

What about the “No. of Gastric Ulcers M ± S.E.M.” value [11] of the same compound?
Its value is 3.0 ± 1.3.

What about the “Inhibition of Gastric Ulcers” value [12] of the same compound?
The value was 83.9.

And the “No. of Gastric Ulcers M ± S.E.M.” value [12]?
The value was 2.5 ± 1.4.

With `CC(C)Cc1ccc(C(C)C(=O)O)cc1` (stereo not drawn) [Ibuprofen, ibuprofen, reference compound] as the compound, how does the “Inhibition of Gastric Ulcers” value (Ibuprofen 100 mg/kg p.o. + vehicle (control), 4 h) read?
The value was 0.

How did the “Inhibition of Gastric Ulcers” value (Naproxen 50 mg/kg p.o. + vehicle (control), 4 h) turn out when `COc1ccc2cc([C@H](C)C(=O)O)ccc2c1` [Naproxen, naproxen, reference compound] was run?
Its value is 0.
